Reference: patent US20090264481A1, “Compounds, Compositions and Methods Comprising Oxadiazole Derivatives” (Institute for OneWorld Health, priority 2008, published 2009)

Target: T1, CFTR channel (Homo sapiens, UniProt P13569)
T1 construct: results in the phosphorylation and opening of CFTR anion channels; host or cells: human colonic T84 cells
Experiment: T84 assay (FLIPR membrane potential, forskolin/IBMX-stimulated CFTR channel activity)
Format: cell-based
Conditions: Human colonic T84 cells; 10 μM forskolin + 100 μM IBMX; average of at least 2 runs unless marked n = 1
Method: (§1) For example, Human colonic T84 cells can be acquired from the European Collection of Cell Cultures (ECACC) and grown in standard culture conditions as described by the supplier. On the day before assay 25,000 T84 cells per well are plated into standard black walled, clear bottom 384-well assay plates in standard growth medium consisting of DMEM:F12 with 10% FBS and incubated overnight. On the day of the assay the plates are washed using a standard assay buffer (HBSS with 10 mM Hepes) and incubated for 15 minutes in serum free cell culture medium before the addition of a commercially available membrane potential sensitive fluorescent dye (FLIPR Red membrane potential dye, Molecular Devices Corporation). T84 cells are incubated with the FLIPR Red membrane potential dye for 45 minutes in the presence and absence of test compound before being transferred to a commercially available fluorescence imaging plate reader (FLIPR384, Molecular Devices Corporation). Fluorescence levels are monitored continuously every second for 150 seconds; after an initial 10 second baseline, CFTR channel activity is stimulated through the addition of 10 μM forskolin in the presence of 100 μM of the phosphodiesterase inhibitor iso-butyl-methylxanthine (IBMX). Addition of the forskolin leads to the activation of intracellular adenylyl cylase 1, elevating cAMP levels and results in the phosphorylation and opening of CFTR anion channels. CFTR channel opening causes chloride ion efflux and subsequent depolarization of the cells, which is measured by an increase in fluorescence. CFTR inhibitor compounds prevent cell depolarization and the associated increase in fluorescence.
as §1, with “Human colonic” for “For example, Human colonic”, “T84 cells are acquired from” for “T84 cells can be acquired from”, “(ECACC) and are grown in” for “(ECACC) and grown in”

T1 sequence (P13569 whole entry): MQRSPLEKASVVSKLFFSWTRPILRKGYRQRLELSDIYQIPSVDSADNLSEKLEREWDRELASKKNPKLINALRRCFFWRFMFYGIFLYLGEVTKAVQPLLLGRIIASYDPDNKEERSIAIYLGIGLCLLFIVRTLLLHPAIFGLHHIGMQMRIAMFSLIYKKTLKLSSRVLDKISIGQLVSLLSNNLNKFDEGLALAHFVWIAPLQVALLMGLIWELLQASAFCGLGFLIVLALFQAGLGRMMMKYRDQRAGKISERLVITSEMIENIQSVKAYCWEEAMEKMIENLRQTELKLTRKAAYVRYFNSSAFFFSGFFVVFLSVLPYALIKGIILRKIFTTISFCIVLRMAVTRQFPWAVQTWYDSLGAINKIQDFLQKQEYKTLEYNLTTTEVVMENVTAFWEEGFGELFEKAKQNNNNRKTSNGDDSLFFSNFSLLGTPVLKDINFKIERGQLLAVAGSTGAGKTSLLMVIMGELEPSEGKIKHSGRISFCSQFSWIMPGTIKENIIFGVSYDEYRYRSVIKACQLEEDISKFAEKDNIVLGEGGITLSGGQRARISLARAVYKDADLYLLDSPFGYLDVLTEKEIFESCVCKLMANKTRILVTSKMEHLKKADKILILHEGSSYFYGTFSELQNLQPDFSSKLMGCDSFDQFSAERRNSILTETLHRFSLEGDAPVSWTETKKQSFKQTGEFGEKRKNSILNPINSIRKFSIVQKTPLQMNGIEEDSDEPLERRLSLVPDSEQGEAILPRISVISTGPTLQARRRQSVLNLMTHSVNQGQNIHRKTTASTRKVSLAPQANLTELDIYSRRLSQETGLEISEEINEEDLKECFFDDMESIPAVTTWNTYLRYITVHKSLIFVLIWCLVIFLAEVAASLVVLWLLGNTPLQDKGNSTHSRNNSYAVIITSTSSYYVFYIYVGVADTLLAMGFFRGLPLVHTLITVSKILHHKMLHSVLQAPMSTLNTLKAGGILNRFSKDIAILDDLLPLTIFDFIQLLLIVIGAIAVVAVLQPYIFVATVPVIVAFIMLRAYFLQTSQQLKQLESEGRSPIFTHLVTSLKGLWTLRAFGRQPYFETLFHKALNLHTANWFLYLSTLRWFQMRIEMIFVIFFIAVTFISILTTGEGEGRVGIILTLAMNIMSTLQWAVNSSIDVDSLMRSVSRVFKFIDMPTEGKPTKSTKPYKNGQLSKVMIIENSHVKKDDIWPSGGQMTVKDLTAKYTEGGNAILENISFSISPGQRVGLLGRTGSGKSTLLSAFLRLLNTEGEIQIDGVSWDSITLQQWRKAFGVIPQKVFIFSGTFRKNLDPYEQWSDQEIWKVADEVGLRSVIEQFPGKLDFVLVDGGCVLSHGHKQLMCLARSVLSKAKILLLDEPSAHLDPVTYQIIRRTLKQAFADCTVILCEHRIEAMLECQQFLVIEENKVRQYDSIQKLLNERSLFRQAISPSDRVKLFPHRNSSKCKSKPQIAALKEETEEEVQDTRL

Row | Structure (SMILES) | IC50 [µM]
1 | Oc1c(Br)cc(-c2noc(C(O)(c3ccc4ccccc4c3)c3ccc4ccccc4c3)n2)cc1Br [Compound 7, 2,6-dibromo-4-(5-(hydroxydinaphthalen-2-ylmethyl)-1,2,4-oxadiazol-3-yl)phenol] | 18.7
2 | Oc1c(Cl)cc(-c2noc(C(O)(c3ccc(Cl)cc3)c3ccc(Cl)cc3)n2)cc1Cl [Compound 11, 4-(5-(bis(4-chlorophenyl)(hydroxy)methyl)-1,2,4-oxadiazol-3-yl)-2,6-dichlorophenol] | 11.1
3 | COc1cccc(C(O)(c2cccc(OC)c2)c2nc(-c3cc(Cl)c(O)c(Cl)c3)no2)c1 [Compound 9, 2,6-dichloro-4-(5-(hydroxybis(3-methoxyphenyl)methyl)-1,2,4-oxadiazol-3-yl)phenol] | 9.65
4 | CC#CC(O)(C#CC)c1nc(-c2cc(Br)c(O)c(Br)c2)no1 [Compound 12, 2,6-dibromo-4-(5-(4-hydroxyhepta-2,5-diyn-4-yl)-1,2,4-oxadiazol-3-yl)phenol] | 16.2
5 | Oc1c(Br)cc(-c2noc(C(O)(c3cccc(Cl)c3)c3cccc(Cl)c3)n2)cc1Br [Compound 8, 4-(5-(bis(3-chlorophenyl)(hydroxy)methyl)-1,2,4-oxadiazol-3-yl)-2,6-dibromophenol] | 11.4
6 | CC(C)(C)c1ccc(C(O)(c2ccc(C(C)(C)C)cc2)c2nc(-c3cc(Br)c(O)c(Br)c3)no2)cc1 [Compound 6, 4-(5-(bis(4-tert-butylphenyl)(hydroxy)methyl)-1,2,4-oxadiazol-3-yl)-2,6-dibromophenol] | 18.8

Compounds with a lower IC50, results first:

Row | IC50 [µM] | Structure (SMILES)
7 | 3.89 | Oc1c(Br)cc(-c2noc(C(O)(Cc3ccccc3)Cc3ccccc3)n2)cc1Br [Compound 1, 2,6-dibromo-4-(5-(2-hydroxy-1,3-diphenylpropan-2-yl)-1,2,4-oxadiazol-3-yl)phenol]
8 | 5.04 | Oc1c(Br)cc(-c2noc(C(O)(c3cccc(F)c3)c3cccc(F)c3)n2)cc1Br [Compound 2, 4-(5-(bis(3-fluorophenyl)(hydroxy)methyl)-1,2,4-oxadiazol-3-yl)-2,6-dibromophenol]
9 | 5.47 | COc1cccc(C(O)(c2cccc(OC)c2)c2nc(-c3cc(Br)c(O)c(Br)c3)no2)c1 [Compound 3, 2,6-dibromo-4-(5-(hydroxybis(3-methoxyphenyl)methyl)-1,2,4-oxadiazol-3-yl)phenol]
10 | 5.63 | Oc1c(Br)cc(-c2noc(C(O)(c3ccc(Cl)cc3)c3ccc(Cl)cc3)n2)cc1Br [Compound 4, 4-(5-(bis(4-chlorophenyl)(hydroxy)methyl)-1,2,4-oxadiazol-3-yl)-2,6-dibromophenol]
11 | 5.85 | Oc1c(Br)cc(-c2noc(C(O)(c3ccccc3)c3ccccc3)n2)cc1Br [Compound 5, 2,6-dibromo-4-(5-(hydroxydiphenylmethyl)-1,2,4-oxadiazol-3-yl)phenol]
12 | 6.94 | Oc1c(Cl)cc(-c2noc(C(O)(c3ccccc3)c3ccccc3)n2)cc1Cl [Compound 10, 2,6-dichloro-4-(5-(hydroxydiphenylmethyl)-1,2,4-oxadiazol-3-yl)phenol]
